This note sets out measurements from patent US5834301A, “Method of removing color from kraft wood pulps” (priority 1995, dated 1998).

Common to all, as to type: biochemical
What all share (details): 1 mM reagent

In assay [1] the test system is Streptomyces sp. TUB B-12-2 endoxylanase xyl 1a. The method, then:
(§1) Xylanase activity was routinely determined by measuring the release of reducing sugars from either 1% (w/v) alkali-soluble or water soluble oat-spelt xylan, using the Somogyi's modification Nelson method (NS) as previously described. Crude or purified enzyme preparations were diluted appropriately to obtain maximal activity consistent with a linear response. For comparative purposes, xylanase activities were measured against 1% (w/v) water soluble and water insoluble xylan from either oat-spelts or birch (Sigma). The dinitrosalicylic acid (DNS) method of Miller, Anal. Chem., 31:426-429 (1959) was used to assay xylanase activity during initial screening. Carboxymethylcellulase activity (CMCase) was assayed by replacing 1% xylan with 1% of low viscosity carboxymethyl cellulose (Sigma). Acetylated glucuronoxylan was recovered from birch wood flakes by hot water extraction. β-Xylosidase was assayed as described by Bachmann and McCarthy, J. Gen. Microbiol., 135:293-299 (1989) using 5 mM p-nitrophenyl-β-D-xylopyranoside in 50 mM potassium phosphate buffer at pH 7.0. The values of the Michaelis constant (Km) and the maximum velocity (Vmax) were determined from a Lineweaver-Burke plot of assayed activities over a range of substrate concentrations. Suitably diluted xylanases were incubated with alkali-soluble birch wood or oat spelt xylan at concentrations ranging from 0.5 to 10 mg/ml under the assay conditions given.
(§2) f. Effectors. We investigated the effects of 1 mM metal ions and other agents on the activities of purified endoxylanases (Table 14).

Assay [2] has as its system Streptomyces sp. TUB B-12-2 endoxylanase xyl 3. The method, then:
as §1, §2

For assay [3], the system named is Streptomyces sp. TUB B-12-2 endoxylanase xyl 1b. The method, then: as §1, §2
Assay [4] concerns Streptomyces sp. TUB B-12-2 endoxylanase xyl 2. The method, then:
as §1, §2

Assay [5] has as its system Streptomyces sp. TUB B-12-2 endoxylanase xyl 4. The method, then:
as §1, §2

With `O=S(=O)(F)Cc1ccccc1` [PMSF, Phenylmethylsulfonylfluoride], in assay [1], the “Effect on activity of xyl 1a (in words)” value is “did not influence the activity” and the “Relative activity (%) xyl 1a” value came to 95%. Moreover, in assay [2], the “Effect on activity of xyl 3 (in words)” value is reported as “did not influence the activity” and the “Relative activity (%) xyl 3” value is on record as 100%. In addition, in assay [3], the “Effect on activity of xyl 1b (in words)” value was “did not influence the activity” and the “Relative activity (%) xyl 1b” value was determined as 87%. For the same compound, in assay [4], the “Effect on activity of xyl 2 (in words)” value is recorded as “did not influence the activity” and the “Relative activity (%) xyl 2” value was 100%. In assay [5], the “Effect on activity of xyl 4 (in words)” value was “did not influence the activity” and the “Relative activity (%) xyl 4” value turned out to be 100%.

Turning to `O=C(O)c1cc[c]([Hg][OH])cc1` [PHMB, p-Hydroxymercury-benzoate], the “Relative activity (%) xyl 1a” value in assay [1] is recorded as 100%. Besides, in assay [2], the “Relative activity (%) xyl 3” value is recorded as 96%. Also, in assay [3], the “Effect on activity of xyl 1b (in words)” value is “completely inactivated” and the “Relative activity (%) xyl 1b” value is 0%. Further, the “Relative activity (%) xyl 2” value in assay [4] is 90%. The “Relative activity (%) xyl 4” value in assay [5] amounted to 95%.

N-Bromosuccinamide: in assay [1], the “Effect on activity of xyl 1a (in words)” value is on record as “totally inactivated” and the “Relative activity (%) xyl 1a” value worked out at 0%. Also, in assay [2], the “Effect on activity of xyl 3 (in words)” value is reported as “totally inactivated” and the “Relative activity (%) xyl 3” value came out at 0%. Moreover, in assay [3], the “Effect on activity of xyl 1b (in words)” value was “totally inactivated” and the “Relative activity (%) xyl 1b” value is 0%. Moreover, in assay [4], the “Effect on activity of xyl 2 (in words)” value is “totally inactivated” and the “Relative activity (%) xyl 2” value amounted to 0%. Also, in assay [5], the “Effect on activity of xyl 4 (in words)” value is recorded as “totally inactivated” and the “Relative activity (%) xyl 4” value turned out to be 0%.
